In patent US7053121B2, “Compositions and methods for regulating circadian rhythms” (priority 2001, dated 2006):

Columns and labels:
[1] = test system: Gal4DBD fusions of CLOCK and MOP4 with VP16 fusions of nuclear receptors; test: Mammalian two-hybrid analysis in CV-1 cells; format: cell-based, human; details: ligand 1 μM, FIG. 1B
Experimental: NIH 3T3 cells were seeded at 20,000 cells/well in a 48-well dish and transfected by FuGENE™ liposome-mediated transfer (Roche Molecular Biochemicals, Indianapolis, Ind.) with internal control pRLSV40 (5 ng), pGL3M34 reporter, CMX-MOP4 (100 ng) or CMX-CLOCK (100 ng) and CMX-BMAL1 (100 ng) in the presence or absence of CMX-RXRα or CMX-RARα (25–100 ng). CMX-MOP4ΔAAA (100 ng), pCDNA3.1MOP4Δ727 (100 ng), pCDNA3.1MOP4Δ624 (100 ng), and CMX-MOP4Δ635–645 (100 ng) were used instead of CMXMOP4 where indicated. The amount of DNA in each transfection was kept constant by addition of empty pCDNA3 vector. […] Forty-eight hours post-transfection, cells were harvested to determine luciferase activity by luminometry (Dual-Luciferase® Reporter Assay System, Promega Corporation, Madison, Wis.). The procedure for mammalian two-hybrid analysis was identical except that CV-1 cells were used. MH100TK-LUC (100 ng) reporter, CMX-Gal4DBD-MOP4 (20 ng), CMX-Gal4DBD-CLOCK (20 ng) in the presence of, CMX-VP16-PPARγ (20 ng), CMX-VP16-RARα (20 ng), CMX-VP16-TRβ (20 ng), CMX-RXRα (20 ng) or CMX-VP16-PPARα (20 ng). […] For all the figures, each value is the mean of three independent experiments +/− standard error. Each experiment included six replicates from a single assay.

[2] = test system: hPER2 transcript oscillation in VSMC; test: Serum shock and ribonuclease protection analysis of hPER2 mRNA in VSMC; format: cell-based, human
Experimental: In these experiments, it was determined that oscillating clock gene expression could be induced by serum shock in VSMC as had been reported in Rat and 3T3 fibroblasts (Balsalobre, et al. (1998) Cell 93:929–937; Akashi, et al. (2000) Genes Dev. 14:645–649). Following addition of 50% serum for two hours, hPER2 mRNA peaks very rapidly at T4 (fours hours after serum shock) and enters a cyclical expression pattern, peaking at T24 and T48 (FIG. 5A). Adding tRA at T17 and leaving it in the culture for the remainder of the experiment, delayed the peak of hPER2 mRNA from T24 to T28. […] When tRA was added at T17 and removed at T19, the first hPER2 peak was again delayed to T28. However, the drop in hPER2 levels was followed by an increase, resulting in a second cycle which peaked at T52 (FIG. 5C). Thus, tRA phase delayed the hPER oscillation by four hours, which is consistent with the observation that ligand-bound RARα prevents CLOCK:BMAL1 heterodimer from activating transcription through its E-box. Removal of the ligand restored the ability of the CLOCK:BMAL1 heterodimer to induce hPER2 expression, but the phase of the cycle was delayed.
The coincidental circadian variability of catecholamines and blood pressure (Hossmann, et al. (1980) Cardiovasc. Res. 14:125–129) led to the investigation of whether catecholamines can phase-shift a core clock oscillator in VSMC. Norepinephrine and epinephrine (10 μM), were added at T16 and left in the culture until T18. This phase advanced the hPER2 mRNA peak to T20 instead of T24 (FIG. 5D).
VSMC (3500 cells/cm^2) were plated on 10 cm^2 plates 6 days before the experiment and were serum-starved for 48 hours after reaching confluence. Serum shock was carried out using 50% fetal bovine serum (Gibco, Carlsbad, Calif.) as previously described (Balsalobre, et al. (1998) Cell 93:929–937) and cells were harvested at the indicated time points and stored at −80° C. Total RNA was extracted from each sample using the RNAwiz™ reagent (Ambion, Austin, Tex.). […] RNA (5 μg) from each time point was hybridized for 16 hour with 8×10^4 cpm of the probe at 42° C. and digested with RNaseA/T1 (SequaGel System, National Diagnostics, Atlanta, Ga.), dried and analyzed by a PhosphorImager. The data was quantitated using ImageQuant version 1.2 software (Amersham Pharmacia Molecular Dynamics, Piscataway, N.J.) All results represent a mean of at least two independent experiments and are expressed as the ratio of the MOP4 or PER2 signal divided by the Actin signal at the same time point.

[3] = target: T1, CLOCK and RARα (Homo sapiens, UniProt P10276); test: In vitro immunoprecipitation of CLOCK and RARα; format: binding; details: in vitro translated proteins, incubation in presence of retinoic acid
T1 construct: made in house; host or cells: coupled in vitro transcription-translation (labelled protein); E. coli BL21(DE3) (purified protein, inferred)
T1 sequence (P10276 1-462): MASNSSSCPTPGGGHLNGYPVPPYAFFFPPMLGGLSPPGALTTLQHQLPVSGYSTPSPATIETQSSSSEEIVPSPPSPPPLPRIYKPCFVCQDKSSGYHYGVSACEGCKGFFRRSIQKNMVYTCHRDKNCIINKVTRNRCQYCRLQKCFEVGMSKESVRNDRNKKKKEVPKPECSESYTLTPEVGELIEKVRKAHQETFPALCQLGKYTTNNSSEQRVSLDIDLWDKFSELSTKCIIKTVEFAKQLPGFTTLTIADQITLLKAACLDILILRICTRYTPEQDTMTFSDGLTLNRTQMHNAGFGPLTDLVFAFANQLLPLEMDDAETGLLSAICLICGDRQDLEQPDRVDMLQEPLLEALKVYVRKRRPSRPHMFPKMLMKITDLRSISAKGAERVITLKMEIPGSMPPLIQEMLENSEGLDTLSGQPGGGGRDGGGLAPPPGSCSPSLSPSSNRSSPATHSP
T1 sequence (O15516 1-846 partner): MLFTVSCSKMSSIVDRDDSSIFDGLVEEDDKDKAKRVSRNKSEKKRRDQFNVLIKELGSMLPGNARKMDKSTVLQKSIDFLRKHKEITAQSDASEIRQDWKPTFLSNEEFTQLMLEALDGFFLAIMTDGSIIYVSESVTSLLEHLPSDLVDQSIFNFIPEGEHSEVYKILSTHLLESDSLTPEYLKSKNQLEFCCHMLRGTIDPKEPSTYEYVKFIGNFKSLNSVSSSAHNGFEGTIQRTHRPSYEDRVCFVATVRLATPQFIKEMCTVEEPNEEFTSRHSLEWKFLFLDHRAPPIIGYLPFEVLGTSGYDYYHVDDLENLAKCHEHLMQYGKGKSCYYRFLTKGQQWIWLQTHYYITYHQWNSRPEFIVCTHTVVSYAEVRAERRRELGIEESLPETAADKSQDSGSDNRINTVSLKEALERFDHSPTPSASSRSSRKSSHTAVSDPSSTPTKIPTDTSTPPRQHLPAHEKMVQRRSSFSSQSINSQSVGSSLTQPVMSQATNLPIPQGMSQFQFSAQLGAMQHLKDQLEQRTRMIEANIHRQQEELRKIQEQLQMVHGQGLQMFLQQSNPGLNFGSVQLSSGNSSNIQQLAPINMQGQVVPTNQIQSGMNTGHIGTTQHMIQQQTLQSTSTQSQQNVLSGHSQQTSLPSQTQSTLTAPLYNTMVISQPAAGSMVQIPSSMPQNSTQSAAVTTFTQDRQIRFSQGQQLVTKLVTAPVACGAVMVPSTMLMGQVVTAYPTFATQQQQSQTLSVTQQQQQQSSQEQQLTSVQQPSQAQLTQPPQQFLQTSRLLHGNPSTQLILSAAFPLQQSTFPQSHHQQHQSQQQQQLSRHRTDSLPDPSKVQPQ
Experimental: [^35S]Methionine-labeled RARα and CLOCK were incubated with purified CLOCK and RARα protein, respectively for 30 min. at room temperature in the presence or absence of tRA. The complex was immunoprecipitated using anti-CLOCK and anti-RAR antibodies (Santa Cruz Biotechnology, Inc., Santa Cruz, Calif.) and protein A-agarose (Gibco, Carlsbad, Calif.) was added. Beads were washed extensively and bound proteins separated by SDS-PAGE and analyzed by a PhosphorImager.

[4] = test system: interaction between MOP4 and CLOCK with RXRα and RARα; details: YRG2 cells, ligand 1 μM, FIG. 1A
Experimental: A liquid β-galactosidase activity assay was utilized to assess the effect of ligands on these novel interactions.
The library was prepared by ligating XhoI/EcoRI-adapted, phosphorylated, oligo-dT-primed cDNA, prepared from polyadenylated RNA extracted from 1×10^8 human aortic vascular smooth muscle cells (Cambrex Corporation, East Rutherford, N.J.), into the HybriZAP® II vector and packaged with Gigapack® III Gold packaging extract (Stratagene, La Jolla, Calif.) into a primary lambda library. […] RXRα-interacting clones were selected on media lacking tryptophan, leucine, and histidine, supplemented with 10 mM 3-amino-triazol.

| SMILES | interaction of MOP4 and CLOCK with RXRα and RARα [1] | hPER2 transcript oscillation ([2]; addition at T17, FIG. 5B) | hPER2 transcript oscillation ([2]; addition at T17 and removal at T19, FIG. 5C) | phase delay of the hPER oscillation ([2]; tRA added at T17) | subsequent hPER2 levels ([2]; tRA added at T17 and left in culture, FIG. 5B) | association of CLOCK and RARα (coimmunoprecipitation) [3] | strength of the interaction between MOP4 and CLOCK with RARα [4] |
| --- | --- | --- | --- | --- | --- | --- | --- |
| CC1=C(/C=C/C(C)=C\C=C\C(C)=C\C(=O)O)C(C)(C)CCC1 [9cisRA, 9-cis-retinoic acid] | ligand-dependent manner |  |  |  |  |  |  |
| CC1=C(/C=C/C(C)=C/C=C/C(C)=C/C(=O)O)C(C)(C)CCC1 [tRA, all-trans retinoic acid] | ligand-dependent manner | delayed | altered | four | dropped and did not peak again | increase in association | increase the strength of the interaction |
